Series [1] deals with T1, neuronal nicotinic acetylcholine receptors (Rattus norvegicus, UniProt P09483+P12390).
T1 construct: crude synaptic membrane preparations from whole rat brain; from tissue; host or cells: whole rat brain, crude synaptic membranes
Nature of the series: [3H]-cytisine binding to neuronal nicotinic acetylcholine receptors, crude synaptic membranes from whole rat brain. The conditions noted are these: [3H]-CYT 1.25 nM, whole rat brain membranes, 60 minutes at 4° C.; Cheng and Prusoff correction; Table 1; read-out: Ki. The protocol: The in vitro protocols for determination of nicotinic acetylcholine channel receptor binding potencies of ligands was determined as follows.
Binding of [^3H]-cytisine ([^3H]-CYT) to neuronal nicotinic acetylcholine receptors was accomplished using crude synaptic membrane preparations from whole rat brain (Pabreza et al., Molecular Pharmacol., 1990, 39:9). Washed membranes were stored at −80° C. prior to use. Frozen aliquots were slowly thawed and resuspended in 20 volumes of buffer (containing: 120 mM NaCl, 5 mM KCl, 2 mM MgCl2, 2 mM CaCl2 and 50 mM Tris-Cl, pH 7.4 @4° C.). After centrifuging at 20,000×g for 15 minutes, the pellets were resuspended in 30 volumes of buffer.
The test compounds were dissolved in water to make 10 mM stock solutions. Each solution was then diluted (1:100) with buffer (as above) and further taken through seven serial log dilutions to produce test solutions from 10^−5 to 10^−11 M.
Homogenate (containing 125-150 µg protein) was added to triplicate tubes containing the range of concentrations of test compound described above and [^3H]-CYT (1.25 nM) in a final volume of 500 μL. Samples were incubated for 60 minutes at 4° C., then rapidly filtered through Whatman GF/B filters presoaked in 0.5% polyethyleneimine using 3×4 mL of ice-cold buffer. The filters are counted in 4 mL of Ecolume® (ICN). Nonspecific binding was determined in the presence of 10 μM (−)-nicotine and values were expressed as a percentage of total binding. IC50 values were determined with a four-parameter non-linear regression and IC50 values were converted to K1 values using the Cheng and Prusoff correction (K1=IC50/(1+[ligand]/Kd of ligand).
Each Example number corresponds to the synthetic Examples described above. […] The lower the Ki value, the more affinity for neuronal nicotinic acetylcholine receptors.

Series [2] concerns mouse hot plate paradigm. The series is described as follows: mouse hot plate paradigm (analgesia, latency until tenth jump). Type of series: in vivo. Particulars: mice, intraperitoneal, dosed 30 minutes prior to testing, hot plate 55° C.; for Analgesic MED (μmol/kg): footnote symbols for no effect; for Analgesic MED: minimally effective dose among the doses tested. On the procedure:
An in vivo protocol was utilized to determine the effectiveness of nicotinic acetylcholine receptor ligands as analgesic agents in the mouse hot plate paradigm.
Separate groups of mice, (n=8/group) were utilized for each dose group. All drugs were administered by the intraperitoneal route of administration. Test drugs were dissolved in water to make a 6.2 mM stock solution. Animals were dosed with this solution (10 mL/kg body weight) for a 62 micromol/kg dose. Lower doses were administered similarly, following serial dilution of the stock solution in half-log increments. Animals were dosed 30 minutes prior to testing in the hot plate. The hot-plate utilized was an automated analgesia monitor (Model #AHP16AN, Omnitech Electronics, Inc. of Columbus, Ohio). The temperature of the hot plate was maintained at 55° C. and a cut-off time of 180 seconds was utilized. A control was run against each compound tested. Latency until the tenth jump was recorded as the dependent measure. An increase in the tenth jump latency relative to the control was considered a significant effect.

T1 sequence (P09483 31-630): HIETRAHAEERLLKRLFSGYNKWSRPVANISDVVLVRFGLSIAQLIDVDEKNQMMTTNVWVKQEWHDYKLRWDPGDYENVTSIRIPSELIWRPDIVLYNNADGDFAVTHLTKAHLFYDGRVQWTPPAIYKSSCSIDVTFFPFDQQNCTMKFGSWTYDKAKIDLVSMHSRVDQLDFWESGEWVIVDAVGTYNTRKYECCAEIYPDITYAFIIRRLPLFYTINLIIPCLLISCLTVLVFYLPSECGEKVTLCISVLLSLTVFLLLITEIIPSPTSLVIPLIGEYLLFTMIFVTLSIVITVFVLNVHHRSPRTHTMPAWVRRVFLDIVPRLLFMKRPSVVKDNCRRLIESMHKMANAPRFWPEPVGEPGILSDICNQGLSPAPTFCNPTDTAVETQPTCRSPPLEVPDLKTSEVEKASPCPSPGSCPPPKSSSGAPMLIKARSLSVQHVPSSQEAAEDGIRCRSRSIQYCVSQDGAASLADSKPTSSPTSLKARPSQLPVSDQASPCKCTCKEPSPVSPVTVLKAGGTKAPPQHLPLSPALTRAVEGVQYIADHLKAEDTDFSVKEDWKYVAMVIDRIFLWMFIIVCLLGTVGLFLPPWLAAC
T1 sequence (P12390 25-500): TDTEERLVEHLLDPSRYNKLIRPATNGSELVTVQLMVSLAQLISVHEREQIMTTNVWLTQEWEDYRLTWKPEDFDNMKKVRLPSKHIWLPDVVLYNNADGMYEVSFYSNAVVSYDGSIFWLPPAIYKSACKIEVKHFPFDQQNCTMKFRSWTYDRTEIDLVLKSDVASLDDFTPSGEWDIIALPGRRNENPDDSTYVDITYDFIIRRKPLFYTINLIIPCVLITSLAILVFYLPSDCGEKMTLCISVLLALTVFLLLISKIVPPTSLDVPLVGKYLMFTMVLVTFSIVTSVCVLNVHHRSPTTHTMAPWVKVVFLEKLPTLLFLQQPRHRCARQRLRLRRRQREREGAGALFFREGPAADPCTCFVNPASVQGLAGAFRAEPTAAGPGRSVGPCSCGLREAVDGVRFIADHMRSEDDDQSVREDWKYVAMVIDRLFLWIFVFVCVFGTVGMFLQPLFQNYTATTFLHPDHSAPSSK

In turn, `CC(COc1cnc(Cl)c(C=Cc2ccncc2)c1)N(C)C` (single isomer, unassigned) [Example 14] yielded a melting point of 79 to 81 °C. Moreover, in series [1], the Ki was found to be 0.367 nM. For the same compound, the “Analgesic MED (μmol/kg)” value in series [2] was “* (no effect at 62)”.

`CC(COc1cnc(Cl)c(C=Cc2ccncc2)c1)N(C)C` (single isomer, unassigned) [Example 39] returned a melting point of 81 to 83 °C. Besides, the Ki in series [1] stood at 0.103 nM. In addition, the “Analgesic MED (μmol/kg)” value in series [2] is given as “* (no effect at 62)”.

Consider `CN[C@@H](C)COc1cnc(Cl)c(C)c1.Cc1ccc(S(=O)(=O)O)cc1` [Example 12, 5-[(S)-2-methylamino-1-propyloxy]-2-chloro-3-methyl pyridine p-toluenesulfonic acid], for which, in series [1], the Ki is 5.47 nM. Besides, in series [2], the “Analgesic MED” value turned out to be 62 µmol/kg.

For the compound `C[C@H](N)COc1cnc(Cl)c(C=Cc2ccncc2)c1.Cc1ccc(S(=O)(=O)O)cc1` [Example 13, 5-[(S)-2-amino-1-propyloxy]-2-chloro-3-(4-vinylpyridinyl) pyridine p-toluenesulfonic acid], the inhibitory constant (Ki) in series [1] turned out to be 0.0761 nM. Moreover, the “Analgesic MED (μmol/kg)” value in series [2] is reported as “* (no effect at 62)”.

With `CC[C@H](N)COc1ccc(Cl)nc1.Cc1ccc(S(=O)(=O)O)cc1` [Example 15, 5-[(S)-2-amino-1-butyloxy]-2-chloro pyridine p-toluenesulfonic acid], the Ki in series [1] is 14.7 nM. Also, in series [2], the “Analgesic MED (μmol/kg)” value was “* (no effect at 62)”.

Take `CC[C@H](N)COc1cnc(Cl)c(Br)c1.Cc1ccc(S(=O)(=O)O)cc1` [Example 18, 5-[(S)-2-amino-1-butyloxy]-2-chloro-3-bromo pyridine p-toluenesulfonic acid]: the Ki in series [1] was 14.8 nM. For the same compound, in series [2], the “Analgesic MED (μmol/kg)” value is given as “* (no effect at 62)”.

Consider `CC[C@@H](COc1cnc(Cl)c(C=Cc2ccncc2)c1)N(C)C` [Example 20, 5-[(S)-2-N-dimethylamino-1-butyloxy]-2-chloro-3-(4-vinylpyridinyl) pyridine di-p-toluenesulfonic acid], for which the melting point fell in the range of 73 to 75 °C. Also, in series [1], the inhibition constant (Ki) came to 3.61 nM.

For `CN(C)[C@H](COc1cnc(Cl)c(C=Cc2ccncc2)c1)Cc1ccccc1` [Example 24, 5-[(S)-2-N-dimethyl-amino-3-phenyl-1-propyloxy]-2-chloro-3-(4-vinylpyridinyl) pyridine di-p-toluenesulfonic acid], the melting point was 81 to 83 °C. In addition, the Ki in series [1] was found to be 4.63 nM. Also, in series [2], the “Analgesic MED (μmol/kg)” value is given as “* (no effect at 62)”.

With `CN[C@H](C)COc1ccc(Cl)nc1.Cc1ccc(S(=O)(=O)O)cc1` [Example 28, 5-[(R)-2-methylamino-1-propyloxy]-2-chloropyridine p-toluenesulfonic acid], the Ki in series [1] stood at 5.87 nM. For the same compound, the “Analgesic MED” value in series [2] came to 62 µmol/kg.

With `C[C@@H](N)COc1ccc(F)nc1.Cc1ccc(S(=O)(=O)O)cc1` [Example 29, 5-[(R)-2-amino-1-propyloxy]-2-fluoro pyridine p-toluenesulfonic acid], the Ki in series [1] turned out to be 6.6 nM. Also, the “Analgesic MED” value in series [2] came to 62 µmol/kg.

With `C[C@H](COc1ccc(F)nc1)N(C)C.Cc1ccc(S(=O)(=O)O)cc1` [Example 30, 5-[(R)-2-dimethylamino-1-propyloxy]-2-fluoro pyridine p-toluenesulfonic acid], the Ki in series [1] is 70.2 nM. Moreover, in series [2], the “Analgesic MED (μmol/kg)” value is on record as “* (no effect at 62)”.

For the compound `CN[C@H](C)COc1ccc(F)nc1.Cc1ccc(S(=O)(=O)O)cc1` [Example 31, 5-[(R)-2-methylamino-1-propyloxy]-2-fluoro pyridine p-toluenesulfonic acid], the Ki in series [1] was determined as 11.4 nM. In addition, in series [2], the “Analgesic MED” value is 62 µmol/kg.

`C[C@@H](N)COc1cnc(Cl)c(Br)c1.Cc1ccc(S(=O)(=O)O)cc1` [Example 32, 5-[(R)-2-amino-1-propyloxy]-2-chloro-3-bromo pyridine p-toluenesulfonic acid]: the inhibition constant Ki in series [1] came to 1.54 nM. Also, the “Analgesic MED” value in series [2] is 62 µmol/kg.

On to `CN[C@H](C)COc1cnc(Cl)c(Br)c1.Cc1ccc(S(=O)(=O)O)cc1` [Example 34, 5-[(R)-2-methylamino-1-propyloxy]-2-chloro-3-bromo pyridine p-toluenesulfonic acid], for which the Ki in series [1] was determined as 1.48 nM. Besides, in series [2], the “Analgesic MED (μmol/kg)” value is on record as “* (no effect at 62)”.

`Cc1cc(OC[C@@H](C)N)cnc1Cl.Cc1ccc(S(=O)(=O)O)cc1` [Example 35, 5-[(R)-2-amino-1-propyloxy]-2-chloro-3-methyl pyridine p-toluenesulfonic acid]: the Ki in series [1] was determined as 0.985 nM. Also, in series [2], the “Analgesic MED” value was 62 µmol/kg.

On to `Cc1cc(OC[C@@H](C)N(C)C)cnc1Cl.Cc1ccc(S(=O)(=O)O)cc1` [Example 36, 5-[(R)-2-dimethylamino-1-propyloxy]-2-chloro-3-methyl pyridine p-toluenesulfonic acid], for which, in series [1], the Ki was 7.2 nM. In series [2], the “Analgesic MED (μmol/kg)” value is reported as “* (no effect at 62)”.

As for `CN[C@H](C)COc1cnc(Cl)c(C)c1.Cc1ccc(S(=O)(=O)O)cc1` [Example 37, 5-[(R)-2-methylamino-1-propyloxy]-2-chloro-3-methyl pyridine p-toluenesulfonic acid], in series [1], the Ki was 0.565 nM. The “Analgesic MED (μmol/kg)” value in series [2] is listed as “* (no effect at 62)”.

Source of the values: patent US20010034357A1, “Substituted pyridine compounds useful for controlling chemical synaptic transmission” (priority 2000, published 2001).
